Results from patent US20240269154A1, “CANNABIDIOL FOR USE IN THE TREATMENT OF PAIN RESULTING FROM AN INDOLEAMINE 2,3-DIOXYGENASE-1 (IDO1) RELATED DISEASE” (Assistance Publique - Hopitaux de Paris, priority 2021, published 2024).
“Also recorded” adds a separate entry of the source.

Tested on: patients suffering from indolent systemic mastocytosis (ISM) or mast cell activation syndrome (MCAS) or having hypertryptasemia
Assay: Numeric rating scale (NRS) pain score in 15 patients treated with CBD capsules
Type: in vivo, human
Settings: for reduction of pain / average pain score (NRS): 15 patients; for reduction of pain: NRS; for average pain score (NRS): D0 average about 7.2
Method: Fifteen patients suffering from indolent systemic mastocytosis (ISM) or mast cell activation syndrome (MCAS) or having hypertryptasemia with no positive result from classic treatments were treated with a daily dose from 15 to 400 mg of cannabidiol (CBD) by capsule.
The pain was measured using numeric rating scale (NRS) pain score, between 0 (no pain) and 10 (worst pain imaginable).

[1] = after one month of treatment (M1)
[2] = after three months of treatment (M3)

Question: With `C=C(C)[C@@H]1CCC(C)=C[C@H]1c1c(O)cc(CCCCC)cc1O` [CBD, cannabidiol] as the molecule, how does the reduction of pain (M1 versus D0) read?
Answer: Its reduction of pain is “about 2 points”.

Question: And the reduction of pain (M3 versus D0)?
Answer: The reduction of pain was “about 3 points”.

Question: What about the “average pain score (NRS)” value [1] of the same molecule?
Answer: Its value is 5.1.

Question: What about the “average pain score (NRS)” value [2] of the same molecule?
Answer: Its value is 3.8.

Question: And the “relief of pain observed” value [1]?
Answer: The value was 13 of 15.

Question: What about the “relief of pain observed” value [2] of the same molecule?
Answer: The value was 14 of 15.

Question: What about the pain treatment withdrawal (individual patient, other pain treatment stopped under CBD) of the same molecule?
Answer: Its pain treatment withdrawal is “stop stelara; also recorded: stop NSAID; also recorded: stop nefopam; also recorded: stop memantine,; also recorded: stop opioids; also recorded: stop methadone,; also recorded: stop methadone; also recorded: stop ketamine; also recorded: stop amitriptyline”.
